Source: patent US20230000832A1, “USE OF NEUROPILIN ANTAGONISTS FOR THE TREATMENT OF ENDOMETRIOSIS” (INSERM (Institut National de la Santé et de la Recherche …, priority 2019, published 2023)
Entries after “also recorded” stand apart in the source; their conditions may differ.

How the values were obtained:
[1] = tested on: human primary unmodified endometrial cell line (TH-EM1); test: Cell proliferation assay (WST-1) on primary endometrial cells; type: cell-based; conditions: for endometrial growth inhibition: high concentration 10^−5M, since 2 days (D2) of exposure; for exposure time to reach maximum efficiency: low concentration between 10^−6 and 10^−7 M, effect stable at D5
Method: (§1) The human primary unmodified endometrial cell line (TH-EM1) describes by Gogusev j et al. 2019 is cultured with Dulbecco modified Eagle medium supplemented with 10% of fetal calf serum (FCS), L-glutamine, and antibiotics (Invitrogen-Thermo Fisher, Cergy-Pontoise, France). Cells were plated in 96-well plates or in 12-well plates to study cell proliferation or apoptosis, respectively.
Cells were plated in 200 μL/well in 96-well plates at 10^4 cells/well and were treated or not with Neuropilin antagonists (NRPa) such as NRPa-47, NRPa-48 at several concentration (10^−5 to 5·10^−8M) alone or in association with different concentrations of progestatif drugs such as Lutenyl® (Nomegestrol acetate) at 3·10^−5 M during 48 h, 72 h or 120 h. WST-1 (Roche®, France) was added for 2 h, then Optical Density was analyzed with a microplate reader (Microplate Manager 5.2, Bio-Rad) at 490 nm to determine the cell viability.

[2] = tested on: human primary unmodified endometrial cell line (TH-EM1); test: Apoptosis assay (Annexin-V/7AAD, flow cytometry); type: cell-based; conditions: 10^−6 M, 72 h, versus untreated and DMSO treated cells
Method: as §1
Cells were plated in 2000 μL/well in 12-well plates at 5·10^5 cells/well and were treated or not with Neuropilin antagonists (NRPa) such as NRPa-47, NRPa-48 during 48 h to 72 h at 10^−6M. Then, cells are harvested and stained using Annexin-V/7AAD kit protocol following manufacturer's recommendation. Then, stained cells were analyzed on a fluorescence activated cell sorter (FACS) Calibur flow cytometer (Becton Dickinson Co, Mountain View, Calif.) and data analysis was performed with Flowjo software.

SMILES | inhibition at 10 µM ([1]; Homo sapiens, 10^−5M, after 48 h (D2), consistent at 72 h (D3), read-out: decrease of cell survival / inhibition of endometrial cells) [%] | IC50 on primary endometrial cell proliferation ([1]; NRPa alone, concentration range, time course D2 to D5, approximative/calculated) | effect of association with progestogen on cell growth inhibition ([1]; NRPa-47 5·10^−7M (6·10^−7 M) with Lutenyl (Nomegestrol acetate) 3·10^−5 M) | endometrial growth inhibition [1] | exposure time to reach maximum efficiency [1] [days] | induction of apoptosis and necrosis / cell death of endometrial cells [2] | IC50 ([1]; Homo sapiens, NRPa alone, approximative, same value restated in nM) [nM] | IC50 ([1]; Homo sapiens, NRPa alone, concentration range, time course D2 to D5, approximative/calculated) [nM] | effect of association with progestogen on cell growth inhibition ([1]; NRPa-48 5·10^−8M with Lutenyl (Nomegestrol acetate) 3·10^−5 M)
Cc1ccc(-c2nc3ccccc3[nH]2)cc1NC(=S)NC(=O)c1ccc2c(c1)OCCO2 [NRPa-47, N-[5-(1H-benzimidazol-2-yl)-2-methylphenyl]-N′-(2,3-dihydro-1,4-benzodioxin-6-ylcarbonyl)thiourea] | 80 | 10^−6 to 10^−7 M | Additif effect; also recorded: additive effect | rapid endometrial growth inhibition | 3 | induction of apoptosis; also recorded: induced endometrial cell death |  |  | 
O=C(NC(=S)Nc1cccc(-c2nc3ccccc3[nH]2)c1)c1ccc2c(c1)OCCO2 [NRPa-48, N-[3-(1H-benzimidazol-2-yl)phenyl]-N′-(2,3-dihydro-1,4-benzodioxin-6-ylcarbonyl)thiourea] |  |  |  | rapid endometrial growth inhibition | 3 | induction of apoptosis; also recorded: induced endometrial cell death | ~100 | 100 | synergistic effect
